In brackets after ≈: the same amount, converted by molar mass. Activity calls are given as the source filed them. No cut-off for these calls is given here. Non-standard residues stand in square brackets, D forms with d. Residues, ends and D or L forms follow the SMILES beside them. ξ: configuration not given here. Pro(3ξ,4ξ-(CH2)4) = O=C(O)[C@H]1NCC2CCCCC21; Pro(3,4-benzo) = O=C(O)[C@H]1NCc2ccccc21; Tic = O=C(O)[C@@H]1Cc2ccccc2CN1; Orn = NCCC[C@H](N)C(=O)O; βAla = NCCC(=O)O
Assays:
Staphylococcus aureus = assay: Antibacterial activity against methicillin/gentamicin/tetracycline resistant Staphylococcus aureus ATCC 33592; format: functional
Salmonella typhimurium = assay: Antibacterial activity against Salmonella Typhimurium ATCC 13311; format: functional, Salmonella enterica subsp. enterica serovar Typhimurium; conditions: for MIC: Salmonella enterica; for Activity: Salmonella enterica subsp. enterica serovar Typhimurium
Mycobacterium = assay: Antibacterial activity against Mycobacterium ranae ATCC 110; format: functional

Structure (SMILES) | Activity (Staphylococcus aureus) | Activity (Salmonella typhimurium) | further results
CC(C)C[C@H](NC(=O)CNC(=O)[C@H](CCCCN)NC(=O)CN)C(=O)N1Cc2ccccc2C[C@H]1C(=O)N1CC2CCCCC2[C@H]1C(=O)NCC(=O)N[C@@H](CCCCN)C(=O)N1Cc2ccccc2C[C@H]1C(=O)N1CC2CCCCC2[C@H]1C(=O)NCC(=O)N[C@@H](CC(C)C)C(=O)N1Cc2ccccc2C[C@H]1C(=O)N1CC2CCCCC2[C@H]1C(=O)NCC(=O)N[C@@H](CCCCN)C(=O)N1Cc2ccccc2C[C@H]1C(=O)N1CC2CCCCC2[C@H]1C(=O)NCC(=O)N[C@@H](CC(C)C)C(=O)N1Cc2ccccc2C[C@H]1C(=O)N1CC2CCCCC2[C@H]1C(=O)NCC(=O)N[C@@H](CCCCN)C(=O)N1Cc2ccccc2C[C@H]1C(=O)N1CC2CCCCC2[C@H]1C(=O)NCC(=O)N[C@@H](CCCCN)C(=O)N[C@@H](CCCNC(=N)N)C(N)=O (stereo not given in full) (H-GKGL[Tic][Pro(3ξ,4ξ-(CH2)4)]GK[Tic][Pro(3ξ,4ξ-(CH2)4)]GL[Tic][Pro(3ξ,4ξ-(CH2)4)]GK[Tic][Pro(3ξ,4ξ-(CH2)4)]GL[Tic][Pro(3ξ,4ξ-(CH2)4)]GK[Tic][Pro(3ξ,4ξ-(CH2)4)]GKR-NH2) |  |  | MIC (Staphylococcus aureus): 10 µM (≈ 34.7 µg/mL); MIC (Salmonella typhimurium): 100 µM (≈ 347 µg/mL)
CC(C)C[C@H](NC(=O)CNC(=O)[C@H](CCCCN)NC(=O)CN)C(=O)N1Cc2ccccc2C[C@H]1C(=O)N1CC2CCCCC2[C@H]1C(=O)NCC(=O)N[C@@H](CCCNC(=N)N)C(=O)N1Cc2ccccc2C[C@H]1C(=O)N1CC2CCCCC2[C@H]1C(=O)NCC(=O)N[C@@H](Cc1ccccc1)C(=O)N1Cc2ccccc2C[C@H]1C(=O)N1CC2CCCCC2[C@H]1C(=O)NCC(=O)N[C@@H](CCCNC(=N)N)C(=O)N1Cc2ccccc2C[C@H]1C(=O)N1CC2CCCCC2[C@H]1C(=O)NCC(=O)N[C@@H](Cc1ccccc1)C(=O)N1Cc2ccccc2C[C@H]1C(=O)N1CC2CCCCC2[C@H]1C(=O)NCC(=O)N[C@@H](CCCNC(=N)N)C(=O)N1Cc2ccccc2C[C@H]1C(=O)N1CC2CCCCC2[C@H]1C(=O)NCC(=O)N[C@@H](CCCCN)C(=O)N[C@@H](CCCNC(=N)N)C(N)=O (stereo not given in full) (H-GKGL[Tic][Pro(3ξ,4ξ-(CH2)4)]GR[Tic][Pro(3ξ,4ξ-(CH2)4)]GF[Tic][Pro(3ξ,4ξ-(CH2)4)]GR[Tic][Pro(3ξ,4ξ-(CH2)4)]GF[Tic][Pro(3ξ,4ξ-(CH2)4)]GR[Tic][Pro(3ξ,4ξ-(CH2)4)]GKR-NH2) |  |  | Activity (Mycobacterium): inactive
CC[C@H](C)[C@H](NC(=O)CN)C(=O)NCC(=O)N[C@@H](CCCCN)C(=O)N[C@@H](Cc1ccccc1)C(=O)N[C@@H](CC(C)C)C(=O)N[C@@H](Cc1cnc[nH]1)C(=O)N[C@@H](CO)C(=O)N[C@@H](C)C(=O)NCC(=O)N[C@@H](CCCCN)C(=O)N[C@@H](Cc1ccccc1)C(=O)NCC(=O)N[C@@H](CCCCN)C(=O)N[C@@H](C)C(=O)N[C@@H](Cc1ccccc1)C(=O)N[C@H](C(=O)NCC(=O)N[C@@H](CCC(=O)O)C(=O)N[C@H](C(=O)N[C@@H](CCSC)C(=O)N[C@@H](CCCCN)C(=O)N[C@@H](CO)C(N)=O)[C@@H](C)CC)C(C)C [MAGAININ 1] |  |  | MIC (Salmonella typhimurium): 30 µM (≈ 72.3 µg/mL)
CSCC[C@H](NC(=O)[C@H](CC(C)C)NC(=O)[C@H](CCC(=O)O)NC(=O)[C@@H]1CCCN1C(=O)[C@H](Cc1ccccc1)NC(=O)[C@H](CCCCN)NC(=O)CNC(=O)[C@H](CC(C)C)NC(=O)CNC(=O)[C@@H]1CCCN1C(=O)[C@H](Cc1ccccc1)NC(=O)[C@H](CCCCN)NC(=O)CNC(=O)[C@H](CC(C)C)NC(=O)CNC(=O)[C@@H]1CCCN1C(=O)[C@H](Cc1ccccc1)NC(=O)[C@H](CCSC)NC(=O)[C@H](CCCCN)NC(=O)CN)C(=O)NCC(=O)N[C@@H](CCCNC(=N)N)C(N)=O (H-GKMFPGLGKFPGLGKFPELMGR-NH2) | inactive | inactive | 
CSCC[C@H](NC(=O)[C@H](CC(C)C)NC(=O)[C@H](CCC(=O)O)NC(=O)[C@@H]1CCCN1C(=O)[C@@H]1Cc2ccccc2CN1C(=O)[C@H](CCCCN)NC(=O)CNC(=O)[C@H](CC(C)C)NC(=O)CNC(=O)[C@@H]1C2CCCCC2CN1C(=O)[C@@H]1Cc2ccccc2CN1C(=O)[C@H](CCC(=O)O)NC(=O)[C@H](CCCCN)NC(=O)CNC(=O)[C@H](CC(C)C)NC(=O)CNC(=O)[C@@H]1C2CCCCC2CN1C(=O)[C@@H]1Cc2ccccc2CN1C(=O)[C@H](CCCCN)NC(=O)CNC(C)=O)C(=O)NCC(=O)N[C@@H](CCC(=O)O)C(=O)N[C@@H](CCCNC(=N)N)C(N)=O (stereo not given in full) (Ac-GK[Tic][Pro(3ξ,4ξ-(CH2)4)]GLGKE[Tic][Pro(3ξ,4ξ-(CH2)4)]GLGK[Tic]PELMGER-NH2) | inactive | inactive | 
CSCC[C@H](NC(=O)[C@H](CC(C)C)NC(=O)[C@H](CCC(=O)O)NC(=O)[C@@H]1Cc2ccccc2CN1C(=O)[C@H](CCCCN)NC(=O)CNC(=O)[C@H](CC(C)C)NC(=O)CNC(=O)[C@@H]1Cc2ccccc2CN1C(=O)[C@H](CCCCN)NC(=O)CNC(=O)[C@H](CC(C)C)NC(=O)CNC(=O)[C@@H]1Cc2ccccc2CN1C(=O)[C@H](CCSC)NC(=O)[C@H](CCCCN)NC(=O)CN)C(=O)NCC(=O)N[C@@H](CCCNC(=N)N)C(N)=O (H-GKM[Tic]GLGK[Tic]GLGK[Tic]ELMGR-NH2) | inactive | inactive | 
CSCC[C@H](NC(=O)[C@H](CC(C)C)NC(=O)[C@H](CCC(=O)O)NC(=O)[C@@H]1CCCN1C(=O)[C@@H]1C2CCCCC2CN1C(=O)[C@H](CCCCN)NC(=O)CNC(=O)[C@H](CC(C)C)NC(=O)CNC(=O)[C@@H]1CCCN1C(=O)[C@@H]1C2CCCCC2CN1C(=O)[C@H](CCCCN)NC(=O)CNC(=O)[C@H](CC(C)C)NC(=O)CNC(=O)[C@@H]1CCCN1C(=O)[C@@H]1C2CCCCC2CN1C(=O)[C@H](CCSC)NC(=O)[C@H](CCCCN)NC(=O)CN)C(=O)NCC(=O)N[C@@H](CCCNC(=N)N)C(N)=O (stereo not given in full) (H-GKM[Pro(3ξ,4ξ-(CH2)4)]PGLGK[Pro(3ξ,4ξ-(CH2)4)]PGLGK[Pro(3ξ,4ξ-(CH2)4)]PELMGR-NH2) | inactive | inactive | 
CC(C)C[C@H](NC(=O)CNC(=O)[C@H](CCCCN)NC(=O)CN)C(=O)N1Cc2ccccc2C[C@H]1C(=O)N1CC2CCCCC2[C@H]1C(=O)NCC(=O)N[C@@H](CCCN)C(=O)N1Cc2ccccc2C[C@H]1C(=O)N1CC2CCCCC2[C@H]1C(=O)NCC(=O)N[C@@H](Cc1ccccc1)C(=O)N1Cc2ccccc2C[C@H]1C(=O)N1CC2CCCCC2[C@H]1C(=O)NCC(=O)N[C@@H](CCCCN)C(=O)N1Cc2ccccc2C[C@H]1C(=O)N1CC2CCCCC2[C@H]1C(=O)NCC(=O)N[C@@H](Cc1ccccc1)C(=O)N1Cc2ccccc2C[C@H]1C(=O)N1CC2CCCCC2[C@H]1C(=O)NCC(=O)N[C@@H](CCCCN)C(=O)N1Cc2ccccc2C[C@H]1C(=O)N1CC2CCCCC2[C@H]1C(=O)NCC(=O)N[C@@H](CCCCN)C(=O)N[C@@H](CCCNC(=N)N)C(N)=O (stereo not given in full) (H-GKGL[Tic][Pro(3ξ,4ξ-(CH2)4)]G[Orn][Tic][Pro(3ξ,4ξ-(CH2)4)]GF[Tic][Pro(3ξ,4ξ-(CH2)4)]GK[Tic][Pro(3ξ,4ξ-(CH2)4)]GF[Tic][Pro(3ξ,4ξ-(CH2)4)]GK[Tic][Pro(3ξ,4ξ-(CH2)4)]GKR-NH2) |  | inactive | 
CSCC[C@H](NC(=O)[C@H](CC(C)C)NC(=O)[C@H](CCC(=O)O)NC(=O)[C@@H]1c2ccccc2CN1C(=O)[C@@H]1Cc2ccccc2CN1C(=O)[C@H](Cc1ccccc1)NC(=O)CCNC(=O)[C@@H]1c2ccccc2CN1C(=O)[C@@H]1Cc2ccccc2CN1C(=O)[C@H](CCCCN)NC(=O)CCNC(=O)[C@@H]1c2ccccc2CN1C(=O)[C@@H]1Cc2ccccc2CN1C(=O)[C@H](Cc1ccccc1)NC(=O)CCNC(=O)[C@@H]1c2ccccc2CN1C(=O)[C@@H]1Cc2ccccc2CN1C(=O)[C@H](CCCCN)NC(=O)CCNC(=O)[C@@H]1c2ccccc2CN1C(=O)[C@@H]1Cc2ccccc2CN1C(=O)[C@H](CC(C)C)NC(=O)CNC(=O)[C@H](CCCCN)NC(=O)CN)C(=O)N[C@@H](CC(N)=O)C(=O)N[C@@H](CO)C(N)=O (H-GKGL[Tic][Pro(3,4-benzo)][βAla]K[Tic][Pro(3,4-benzo)][βAla]F[Tic][Pro(3,4-benzo)][βAla]K[Tic][Pro(3,4-benzo)][βAla]F[Tic][Pro(3,4-benzo)]ELMNS-NH2) | inactive | inactive | 
CC(C)C[C@H](NC(=O)CNC(=O)[C@H](CCCCN)NC(=O)CN)C(=O)N1Cc2ccccc2C[C@H]1C(=O)N1CC2CCCCC2[C@H]1C(=O)NCC(=O)N[C@@H](CCCCN)C(=O)N1Cc2ccccc2C[C@H]1C(=O)N1CC2CCCCC2[C@H]1C(=O)NCC(=O)N[C@@H](Cc1ccccc1)C(=O)N1Cc2ccccc2C[C@H]1C(=O)N1CC2CCCCC2[C@H]1C(=O)NCC(=O)N[C@@H](CCCCN)C(=O)N1Cc2ccccc2C[C@H]1C(=O)N1CC2CCCCC2[C@H]1C(=O)NCC(=O)N[C@@H](Cc1ccccc1)C(=O)N1Cc2ccccc2C[C@H]1C(=O)N1CC2CCCCC2[C@H]1C(=O)NCC(=O)N[C@@H](CCCCN)C(=O)N1Cc2ccccc2C[C@H]1C(=O)N1CC2CCCCC2[C@H]1C(=O)NCC(=O)N[C@@H](CCCCN)C(=O)N[C@@H](CCCNC(=N)N)C(N)=O (stereo not given in full) (H-GKGL[Tic][Pro(3ξ,4ξ-(CH2)4)]GK[Tic][Pro(3ξ,4ξ-(CH2)4)]GF[Tic][Pro(3ξ,4ξ-(CH2)4)]GK[Tic][Pro(3ξ,4ξ-(CH2)4)]GF[Tic][Pro(3ξ,4ξ-(CH2)4)]GK[Tic][Pro(3ξ,4ξ-(CH2)4)]GKR-NH2) |  |  | MIC (Staphylococcus aureus): 10 µM (≈ 35.4 µg/mL)
CSCC[C@H](NC(=O)[C@H](CC(C)C)NC(=O)[C@H](CCC(=O)O)NC(=O)[C@@H]1CCCN1C(=O)[C@@H]1Cc2ccccc2CN1C(=O)[C@H](CCCCN)NC(=O)CNC(=O)[C@H](CC(C)C)NC(=O)CNC(=O)[C@@H]1CCCN1C(=O)[C@@H]1Cc2ccccc2CN1C(=O)[C@H](CCCCN)NC(=O)CNC(=O)[C@H](CC(C)C)NC(=O)CNC(=O)[C@@H]1CCCN1C(=O)[C@@H]1Cc2ccccc2CN1C(=O)[C@H](CCSC)NC(=O)[C@H](CCCCN)NC(=O)CN)C(=O)NCC(=O)N[C@@H](CCCNC(=N)N)C(N)=O (H-GKM[Tic]PGLGK[Tic]PGLGK[Tic]PELMGR-NH2) | inactive | inactive | 
CSCC[C@H](NC(=O)[C@H](CC(C)C)NC(=O)[C@H](CCC(=O)O)NC(=O)[C@@H]1CCCN1C(=O)[C@H](Cc1ccccc1)NC(=O)[C@H](CCCCN)NC(=O)CNC(=O)[C@H](CC(C)C)NC(=O)CNC(=O)[C@H](Cc1ccccc1)NC(=O)[C@H](CCC(=O)O)NC(=O)[C@H](CCCCN)NC(=O)CNC(=O)[C@H](CC(C)C)NC(=O)CNC(=O)[C@@H]1CCCN1C(=O)[C@H](Cc1ccccc1)NC(=O)[C@H](CCSC)NC(=O)[C@H](CCCCN)NC(=O)CNC(C)=O)C(=O)NCC(=O)N[C@@H](CCC(=O)O)C(=O)N[C@@H](CCCNC(=N)N)C(N)=O (Ac-GKMFPGLGKEFGLGKFPELMGER-NH2) | inactive | inactive | 

From ChEMBL document CHEMBL1145395, “De novo design of selective antibiotic peptides by incorporation of unnatural amino acids” (J Med Chem, 2007)
